# In BindingDB's records for doi:10.7270/Q2TB15DB (Burnham Center For Chemical Genomics, 2011):
# Biological target: T1, Endoribonuclease toxin MazF (Escherichia coli (strain K12), UniProt P0AE70)
# T1 sequence (P0AE70 whole entry): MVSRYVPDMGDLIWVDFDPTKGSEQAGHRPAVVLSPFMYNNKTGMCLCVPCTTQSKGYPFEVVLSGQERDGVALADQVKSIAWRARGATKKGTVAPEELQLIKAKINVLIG
# Experiment: substrate-only fluorescence increase artefacts – biochemical, single-stranded RNase substrate, counter-screen for MazEF activator project, dose response (AID 588502)
row,SMILES,EC50 [µM]
1,Cc1oc(C)c2c(=O)ccc3c(c12)OC(=N)C(C#N)C3c1ccccc1 (stereo not drawn),> 99
2,CCCN1C(=O)C(=NNc2ccc3ccccc3n2)c2ccccc21 [(3Z)-1-propyl-3-(2-quinolinylhydrazinylidene)-2-indolone],> 99
3,Cc1ccc2nc(N3C(=O)C(=O)C(C(=O)c4ccco4)C3c3cccs3)sc2c1 (stereo not drawn),> 99
4,CC1(C)CC(=O)C(N=Nc2cc3c(cc2[N+](=O)[O-])OCCO3)C(=O)C1 [SMR000348183],29.6
5,CCN(CC)c1ccc(CN=Nc2ccc([N+](=O)[O-])cn2)cc1 [N-[[4-(diethylamino)phenyl]methylideneamino]-5-nitro-pyridin-2-amine],70.2
6,"O=C1C(=O)N(c2nccs2)C(c2ccccc2)C1C(=O)c1cc2ccccc2o1 (stereo not drawn) [3-(1-benzofuran-2-carbonyl)-4-hydroxy-2-phenyl-1-(1,3-thiazol-2-yl)-2H-pyrrol-5-one]",> 99
7,O=C1N=c2ccc(Br)cc2=C1NNc1ccc(F)cc1 [SMR000564049],45.8
8,"COc1ccc(Nc2oc3cc(=O)ccc-3cc2C(=O)NCC2CCCO2)c(OC)c1 (stereo not drawn) [2-(2,4-dimethoxyanilino)-7-oxo-N-(2-oxolanylmethyl)-1-benzopyran-3-carboxamide]",> 99
9,N#CC(C(=O)c1ccc([N+](=O)[O-])o1)c1nc2ccccc2[nH]1 (stereo not drawn),5.53
10,Clc1cccc(C(Cc2nc3ccccc3[nH]2)N=Nc2ccccc2)c1 (stereo not drawn) [MLS000374846],> 99
11,O=C1N=c2ccccc2=C1NNc1ccc(F)cc1,> 99
12,"O=C(c1ccc2ccccc2n1)c1[nH][nH]c2c(O)n(-c3cccc(F)c3)c(=O)c1-2 [(3aS,6aS)-5-(3-fluorophenyl)-3-[oxo(2-quinolinyl)methyl]-3a,6a-dihydro-1H-pyrrolo[3,4-c]pyrazole-4,6-dione]",> 99
13,Oc1ccc2ccccc2c1C=Nn1c(O)csc1=S [MLS002707175],> 99
14,CCC(N=Nc1cccc(C)c1)c1cnnc(SC)n1 (stereo not drawn) [MLS000705906],> 99
15,"C=CCOc1cccc(C2C(C(=O)c3ccc(C)o3)C(=O)C(=O)N2c2nccs2)c1 (stereo not drawn) [3-(5-methylfuran-2-yl)carbonyl-4-oxidanyl-2-(3-prop-2-enoxyphenyl)-1-(1,3-thiazol-2-yl)-2H-pyrrol-5-one]",> 99
16,Cc1ccc(C2=Nc3nnnn3C(c3ccc(N(C)C)cc3)C2)cc1 (stereo not drawn) [SMR000092467],> 99
17,"COc1cccc(C2=Nc3nnnn3C(c3ccc(N(C)C)cc3)C2)c1 (stereo not drawn) [4-[5-(3-methoxyphenyl)-1,7-dihydro-[1,2,3,4]tetrazolo[1,5-a]pyrimidin-7-yl]-N,N-dimethyl-aniline]",> 99
18,"N#Cc1ccc(-n2c(O)c3[nH][nH]c(C(=O)c4ccc5ccccc5n4)c-3c2=O)cc1 [4-[(3aS,6aS)-4,6-dioxo-3-[oxo(2-quinolinyl)methyl]-3a,6a-dihydro-1H-pyrrolo[3,4-c]pyrazol-5-yl]benzonitrile]",0.271
19,O=c1[nH]c(N=NCc2ccc(F)cc2)nc2ccccc12 [MLS000700887],> 99
20,"CCCCOc1cccc(C2C(C(=O)c3ccc(C)o3)C(=O)C(=O)N2c2nnc(C)s2)c1 (stereo not drawn) [2-(3-butoxyphenyl)-3-(5-methylfuran-2-yl)carbonyl-1-(5-methyl-1,3,4-thiadiazol-2-yl)-4-oxidanyl-2H-pyrrol-5-one]",20.4

row,SMILES,EC50 [µM]
1,"CCN1C(=O)C(C=NN=Cc2ccccc2)c2ccc(C3=NNC(=O)CC3)cc21 (stereo not drawn) [benzaldehyde {[1-ethyl-2-oxo-6-(6-oxo-1,4,5,6-tetrahydro-3-pyridazinyl)-1,2-dihydro-3H-indol-3-ylidene]methyl}hydrazone]",> 99
2,"Cc1cc(O)n(-c2ccc(NCc3ccc(Cl)cc3)c([N+](=O)[O-])c2)c1O [1-{4-[(4-chlorobenzyl)amino]-3-nitrophenyl}-3-methylpyrrolidine-2,5-dione]",> 99
3,Cc1ccc(N/N=C2/C(=O)Nc3ccc(F)cc32)cc1 [5-fluoro-3-[2-(4-methylphenyl)hydrazono]indolin-2-one],29.9
4,"O=c1cc2oc(O)c3cc(O)c(O)c(O)c3c-2oc1=O [6,8,9,10-tetrahydroxypyran[3,2-c]isochromene-2,3-quinone]",> 99
5,O=[N+]([O-])c1ccc(N=NCc2cccc3ccccc23)nc1 [N-(naphthalen-1-ylmethylideneamino)-5-nitro-pyridin-2-amine],45.4
6,CC1CC(=O)C2=C(C1)OC(=N)C(C#N)C2c1coc2ccccc2c1=O (stereo not drawn),> 99
7,COc1ccc(C=C2CCCC(C(=O)C(F)(F)F)C2=O)cc1 (stereo not drawn) [SMR000142699],33.8
8,O=C1N=c2ccccc2=C1NNc1ccccc1F,31.7
9,CCCCN1C(=O)C(=NNc2ccccc2O)c2ccccc21 [(3Z)-1-butyl-3-[(2-hydroxyphenyl)hydrazinylidene]indol-2-one],69.5
10,"COc1cc2c(cc1OC)C(CC(=O)c1ccc([N+](=O)[O-])c(C)c1)=NCC2 [(2Z)-2-(6,7-dimethoxy-3,4-dihydro-2H-isoquinolin-1-ylidene)-1-(3-methyl-4-nitrophenyl)ethanone]",43.8
11,Cc1ccc(NN=C2C(=O)N(CN3CCOCC3)c3ccccc32)cc1 [(3Z)-3-[(4-methylphenyl)hydrazinylidene]-1-(4-morpholinylmethyl)-2-indolone],50.5
12,"CCOC(=O)c1c(NC=C2C(=O)NC(=O)NC2=O)sc2c1CCC2 [ethyl 2-{[(1E)-(2,4,6-trioxohexahydropyrimidin-5-yl)methylene]amino}-5,6-dihydro-4H-cyclopenta[b]thiophene-3-carboxylate]",> 99
13,Cc1cccc(NNC2=c3cc(F)ccc3=NC2=O)c1 [MLS000673317],> 99
14,"Cc1nnc(N2C(=O)C(=O)C(C(=O)c3ccco3)C2c2ccc(C(C)(C)C)cc2)s1 (stereo not drawn) [2-(4-tert-butylphenyl)-3-(furan-2-carbonyl)-4-hydroxy-1-(5-methyl-1,3,4-thiadiazol-2-yl)-2H-pyrrol-5-one]",19.7
15,COc1ccc(N=CCC(=O)c2ccc(C)cc2)cc1OC [SMR000269732],25
16,"COCc1n[nH]c2c1C(c1cc(OC)c(O)c(OC)c1)C(C#N)C(=N)O2 (stereo not drawn) [6-azanyl-4-(3,5-dimethoxy-4-oxidanyl-phenyl)-3-(methoxymethyl)-2,4-dihydropyrano[2,3-c]pyrazole-5-carbonitrile]",> 99
17,Cn1c(C(C#N)C(=O)COc2ccc3ccccc3c2)nc2ccccc21 (stereo not drawn) [(2E)-2-(3-methyl-1H-benzimidazol-2-ylidene)-4-(2-naphthalenyloxy)-3-oxobutanenitrile],> 99
18,"N=C(N)C1=CC(=O)/C(=C/C=c2ccc(=C(N)N)cc2)C=C1 [(4E)-4-[2-[4-[bis(azanyl)methylidene]cyclohexa-2,5-dien-1-ylidene]ethylidene]-3-oxidanylidene-cyclohexa-1,5-diene-1-carboximidamide;2-oxidanylethanesulfonic acid]",> 99
19,O=C1Nc2ccccc2C1=NNc1ccccc1 [3-(phenylhydrazo)-2-indolone],54.6
20,"Cc1[nH]c2ccccc2c1/C=C1\N=C(c2ccc(F)cc2)OC1=O [2-(4-fluorophenyl)-4-[(2-methyl-1H-indol-3-yl)methylene]-1,3-oxazol-5(4H)-one]",55.9

row,SMILES,EC50 [µM]
1,Cc1[nH]c2ccccc2c1/C=C1\N=C(c2ccc(C(F)(F)F)cc2)OC1=O [SMR000152363],> 99
2,"O=C1NC(=O)N(C2CCCCC2)C(=O)C1=CCC=Nc1ccccc1 [(5Z)-5-[(E)-3-anilinoprop-2-enylidene]-1-cyclohexyl-1,3-diazinane-2,4,6-trione]",9.49
3,CSc1nnc(N2C(=O)C(=O)C(C(=O)c3ccc(C)o3)C2c2ccc(C)cc2)s1 (stereo not drawn) [SMR000650392],> 99
4,"O=C1N=c2ccccc2=C1NNc1cccc(Cl)c1 [(3E)-1H-indole-2,3-dione 3-[(3-chlorophenyl)hydrazone]]",> 99
5,O=[N+]([O-])c1ccc(N=NCc2ccccc2)c(F)c1 [2-fluoranyl-4-nitro-N-[(phenylmethylidene)amino]aniline],27.2
6,COc1ccc(CN=Nc2ccc([N+](=O)[O-])cc2S(=O)(=O)N2CCN(C)CC2)cc1 [MLS000553953],8.43
7,"O=[N+]([O-])c1ccc(N=NCc2ccc3c(c2)OCO3)nc1 [N-(1,3-benzodioxol-5-ylmethylideneamino)-5-nitro-pyridin-2-amine]",> 99
8,O=[N+]([O-])c1cc/c(=N\c2ccccc2O)c2no[nH]c1-2 [MLS001206694],> 99
9,C=c1[nH]n(-c2ccccc2)c(=O)c1=Cc1cc(C)n(C2CC2)c1C [MLS001018445],> 99
10,O=C1Nc2ccc([N+](=O)[O-])cc2C1=NNc1ccc(F)cc1,20.3
11,O=C(c1ccc2ccccc2n1)c1[nH][nH]c2c(O)n(-c3cccc(C(F)(F)F)c3)c(=O)c1-2 [SMR000212847],> 99
12,"CCOc1cccc(C2C(C(=O)c3ccc(C)o3)C(=O)C(=O)N2c2nccs2)c1 (stereo not drawn) [2-(3-ethoxyphenyl)-3-(5-methylfuran-2-yl)carbonyl-4-oxidanyl-1-(1,3-thiazol-2-yl)-2H-pyrrol-5-one]",> 99
13,"CSc1ccc(C2C(C(=O)c3ccco3)C(=O)C(=O)N2c2nnc(SC)s2)cc1 (stereo not drawn) [3-(furan-2-carbonyl)-4-hydroxy-2-(4-methylsulfanylphenyl)-1-(5-methylsulfanyl-1,3,4-thiadiazol-2-yl)-2H-pyrrol-5-one]",> 99
14,Cc1ccc(Cl)c2c1=NC(=O)C=2NNc1ccccc1,8.15
15,Cc1ccc(S(=O)(=O)N[N-][C+]2CCC(C(C)(C)C)CC2)cc1[N+](=O)[O-] [SMR000241764],> 99
16,COc1cc(C2c3c(-c4cccs4)n[nH]c3OC(=N)C2C#N)cc(OC)c1O (stereo not drawn) [SMR000275523],13.3
17,CCSc1nnc(N2C(=O)C(=O)C(C(=O)c3ccco3)C2c2cccc(OC)c2)s1 (stereo not drawn) [MLS001140620],> 99
18,CCOc1ccc(N=CCC(=O)c2ccc(OC)cc2)c([N+](=O)[O-])c1,6.29
